Consider six compounds from PMC5551175, “Trypanosoma brucei Inhibition by Essential Oils from Medicinal and Aromatic Plants Traditionally Used in Cameroon (Azadirachta indica, Aframomum melegueta, Aframomum daniellii, Clausena anisata, Dichrostachys cinerea and Echinops giganteus)” (International Journal of Environmental Research and Public …, 2017).

Molecules are shown by their SMILES. Like-named read-outs stand apart in the source and are kept apart here.

Assay [1] has as its system T. brucei TC221 bloodstream forms. As to the kind of experiment: T. brucei growth inhibition assay (resazurin). To be noted: Trypanosoma brucei, 72 h, 48 h + 24 h with resazurine. It counts as cell-based. On the procedure: (§1) The cell culture conditions and the growth inhibition assay on T. brucei and Balb/3T3 cells were performed as described before. T. brucei TC221 bloodstream forms and mouse embryonic fibroblast Balb/3T3 cells (ATCC no CCL-163) were cultivated in vented plastic flasks at 37 °C with 5% CO2. For T. brucei, the growth medium was HMI-9 [45] supplemented with 10% (v/v) fetal bovine serum (Gibco, Waltham, MA, USA), whereas the Balb/3T3 cells were grown in Dulbecco’s Modified Eagle’s Medium (Sigma-Aldrich) supplemented with 10% (v/v) heat-inactivated fetal bovine serum, glutamine (0.584 g/L), and 10 mL/L 100× penicillin-streptomycin (Gibco). The essential oils or pure compounds identified from these oils were dissolved in dimethyl sulfoxide (DMSO) and serially diluted with growth medium in white 96-well microtiter plates. 20,000 bloodstream forms of T. brucei or Balb/3T3 cells were added to each well in a final volume of 200 μL. In the case of mammalian cells, we also tested 2000 cells/well with similar results. […] Cell viability was verified by a drug-free control for each compound. The plates were incubated for 48 h in the CO2 incubator; then 20 μL of 0.5 mM resazurine (Sigma Aldrich) was added to each well, and the plates were incubated for an additional 24 h before the fluorescence was measured with an Infinite M200 microplate reader (Tecan group, Ltd., Männedorf, Switzerland) equipped with 540 and 590 nm excitation and emission filters. The half maximal inhibitory concentration (IC50) values were calculated on a log inhibitor versus the response curves by non-linear regression using the GraphPad prism 5.04 software (GraphPad Software, Inc., La Jolla, CA, USA).
(In general: The colour change of resazurin is a common sign of viable cells or microbes.)

Another assay deals with Balb/3T3 cells. As to the kind of experiment: Mammalian cell growth inhibition assay (resazurin). The class given is cell-based, mouse. To be noted: for CC50: BALB/3T3, 72 h, mouse embryonic fibroblast cells, 48 h + 24 h with resazurine, read-out: IC50 Balb/3T3; for Selectivity Index (SI): Balb/3T3 versus T. b. brucei TC221. As for the experimental part:
as §1

Where [2] appears, read: read-out: IC50 T. b. brucei (TC221).
[3] abbreviates: µM value in parentheses, read-out: IC50 T. b. brucei (TC221), value in brackets (converted).

A word on the IC50: it is the point on the concentration scale where inhibition reaches its midpoint. As to `C=C1CCC2CC1C2(C)C` (stereo not drawn) [β-Pinene], the IC50 in assay [1] (setting [2]) turned out to be 11.4 ± 2.6 µg/mL. The half-maximal inhibitory concentration (IC50) in assay [1] (setting [3]) is 83.7 µM. In the assay with Balb/3T3 cells, the CC50 was > 100 µg/mL and the “Selectivity Index (SI)” value is >8.77.

With `CC1=CCC(O)(C(C)C)CC1` (stereo not shown) [Terpinen-4-ol], the IC50 in assay [1] (setting [2]) was > 100 µg/mL.

For `C=C1CCC2(C(C)C)CC12` (stereo not shown) [Sabinene], the 50% inhibitory concentration (IC50) in assay [1] (setting [2]) was 5.96 ± 1.3 µg/mL. Moreover, the half-inhibitory concentration (IC50) in assay [1] (setting [3]) was 43.8 µM. Also, in the assay with Balb/3T3 cells, the CC50 was > 100 µg/mL and the “Selectivity Index (SI)” value is listed as >16.7.

`Cc1ccc(C(=O)Nc2ccc(S(=O)(=O)O)c3cc(S(=O)(=O)O)cc(S(=O)(=O)O)c23)cc1NC(=O)c1cccc(NC(=O)Nc2cccc(C(=O)Nc3cc(C(=O)Nc4ccc(S(=O)(=O)O)c5cc(S(=O)(=O)O)cc(S(=O)(=O)O)c45)ccc3C)c2)c1` [Suramin, reference compound]: the half-inhibitory concentration (IC50) was 0.0286 ± 0.0008 µg/mL in assay [1] (setting [2]) and 0.022 µM in assay [1] (setting [3]).

In the case of `C=C1CC/C=C(\C)CC[C@@H]2[C@@H]1CC2(C)C` [(E)-Caryophyllene], in assay [1] (setting [2]), the IC50 amounted to 8.25 ± 1.3 µg/mL. Besides, the IC50 in assay [1] (setting [3]) was 40.4 µM. In the assay on Balb/3T3 cells, the CC50 is > 100 µg/mL and the “Selectivity Index (SI)” value was >12.1.

For `CC12CCC(CC1)C(C)(C)O2` [1,8-Cineole], the concentration for half-maximal inhibition (IC50) in assay [1] (setting [2]) was > 100 µg/mL.
